Experimental data from ChEMBL document CHEMBL5212743, “Selectivity Literature for EUbOPEN Chemogenomics Library wave 3” (2023).
Blank lines part the entries; values can stand above or below the compound they belong to.

Tests used:
[1] = biological target: T1, Cyclin-G-associated kinase (Homo sapiens) (UniProt O14976); test: Selectivity interaction (KinomeScan (DiscoverX)) EUB0000698a GAK; settings: at 10 µM
T1 sequence (whole entry): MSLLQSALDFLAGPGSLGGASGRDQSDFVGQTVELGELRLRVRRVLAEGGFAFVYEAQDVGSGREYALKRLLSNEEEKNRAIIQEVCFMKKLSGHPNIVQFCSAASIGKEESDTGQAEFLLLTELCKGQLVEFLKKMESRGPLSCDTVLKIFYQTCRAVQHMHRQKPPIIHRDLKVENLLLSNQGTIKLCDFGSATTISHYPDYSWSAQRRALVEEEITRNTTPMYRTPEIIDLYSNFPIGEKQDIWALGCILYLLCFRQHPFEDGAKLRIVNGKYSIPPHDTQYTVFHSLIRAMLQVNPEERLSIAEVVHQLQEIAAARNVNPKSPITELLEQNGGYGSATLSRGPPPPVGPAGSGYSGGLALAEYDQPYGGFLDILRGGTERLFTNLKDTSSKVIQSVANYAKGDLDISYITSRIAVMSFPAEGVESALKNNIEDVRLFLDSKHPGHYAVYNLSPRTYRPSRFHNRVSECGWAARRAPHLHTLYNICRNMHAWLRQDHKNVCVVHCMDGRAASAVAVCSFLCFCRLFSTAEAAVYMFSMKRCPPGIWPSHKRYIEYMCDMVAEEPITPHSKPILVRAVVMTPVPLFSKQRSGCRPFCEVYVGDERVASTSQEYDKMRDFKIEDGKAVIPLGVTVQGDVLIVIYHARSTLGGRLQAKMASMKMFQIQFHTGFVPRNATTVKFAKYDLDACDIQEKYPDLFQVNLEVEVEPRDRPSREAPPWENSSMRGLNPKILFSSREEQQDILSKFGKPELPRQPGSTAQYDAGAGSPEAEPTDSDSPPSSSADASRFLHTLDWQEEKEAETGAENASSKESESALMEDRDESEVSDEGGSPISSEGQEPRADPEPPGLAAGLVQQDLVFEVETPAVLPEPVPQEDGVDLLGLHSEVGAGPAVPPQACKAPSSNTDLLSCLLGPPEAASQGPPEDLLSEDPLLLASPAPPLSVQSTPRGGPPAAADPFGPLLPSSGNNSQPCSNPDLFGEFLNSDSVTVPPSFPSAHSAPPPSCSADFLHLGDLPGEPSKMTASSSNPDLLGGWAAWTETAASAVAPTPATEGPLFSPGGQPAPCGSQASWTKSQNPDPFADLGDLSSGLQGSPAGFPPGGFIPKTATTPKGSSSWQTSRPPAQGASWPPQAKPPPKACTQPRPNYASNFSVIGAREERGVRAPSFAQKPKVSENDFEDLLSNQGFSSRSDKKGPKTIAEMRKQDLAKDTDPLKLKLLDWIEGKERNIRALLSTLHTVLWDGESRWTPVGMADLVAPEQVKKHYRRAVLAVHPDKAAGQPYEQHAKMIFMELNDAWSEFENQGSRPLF

[2] = biological target: T2, Dual specificity mitogen-activated protein kinase kinase 5 (Homo sapiens) (UniProt Q13163); test: Selectivity interaction (KinomeScan (DiscoverX)) EUB0000698a MAP2K5; settings: at 10 µM
T2 sequence (whole entry): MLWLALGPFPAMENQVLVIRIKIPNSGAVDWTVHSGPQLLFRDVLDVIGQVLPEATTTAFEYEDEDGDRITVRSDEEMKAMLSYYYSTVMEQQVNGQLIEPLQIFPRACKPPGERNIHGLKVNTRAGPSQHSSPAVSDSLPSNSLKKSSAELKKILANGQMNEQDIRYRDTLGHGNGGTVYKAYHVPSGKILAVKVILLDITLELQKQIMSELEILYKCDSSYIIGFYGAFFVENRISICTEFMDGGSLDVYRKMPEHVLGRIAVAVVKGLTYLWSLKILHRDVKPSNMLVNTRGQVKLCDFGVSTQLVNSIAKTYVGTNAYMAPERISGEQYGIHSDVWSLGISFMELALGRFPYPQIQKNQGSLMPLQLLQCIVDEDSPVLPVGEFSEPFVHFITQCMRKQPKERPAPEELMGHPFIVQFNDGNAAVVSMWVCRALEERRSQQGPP

[3] = biological target: Serine/threonine-protein kinase 3 (Homo sapiens) (UniProt Q13188); test: Selectivity interaction (KinomeScan (DiscoverX)) EUB0000698a STK3; settings: at 10 µM
[4] = biological target: Ribosomal protein S6 kinase alpha-5 (Homo sapiens) (UniProt O75582); test: Selectivity interaction (Kinase panel (University of Dundee)) EUB0000169b RPS6KA5; settings: at 10 µM
Ribosomal protein S6 kinase alpha-5 (Homo sapiens), sequence (O75582 whole entry, looked up): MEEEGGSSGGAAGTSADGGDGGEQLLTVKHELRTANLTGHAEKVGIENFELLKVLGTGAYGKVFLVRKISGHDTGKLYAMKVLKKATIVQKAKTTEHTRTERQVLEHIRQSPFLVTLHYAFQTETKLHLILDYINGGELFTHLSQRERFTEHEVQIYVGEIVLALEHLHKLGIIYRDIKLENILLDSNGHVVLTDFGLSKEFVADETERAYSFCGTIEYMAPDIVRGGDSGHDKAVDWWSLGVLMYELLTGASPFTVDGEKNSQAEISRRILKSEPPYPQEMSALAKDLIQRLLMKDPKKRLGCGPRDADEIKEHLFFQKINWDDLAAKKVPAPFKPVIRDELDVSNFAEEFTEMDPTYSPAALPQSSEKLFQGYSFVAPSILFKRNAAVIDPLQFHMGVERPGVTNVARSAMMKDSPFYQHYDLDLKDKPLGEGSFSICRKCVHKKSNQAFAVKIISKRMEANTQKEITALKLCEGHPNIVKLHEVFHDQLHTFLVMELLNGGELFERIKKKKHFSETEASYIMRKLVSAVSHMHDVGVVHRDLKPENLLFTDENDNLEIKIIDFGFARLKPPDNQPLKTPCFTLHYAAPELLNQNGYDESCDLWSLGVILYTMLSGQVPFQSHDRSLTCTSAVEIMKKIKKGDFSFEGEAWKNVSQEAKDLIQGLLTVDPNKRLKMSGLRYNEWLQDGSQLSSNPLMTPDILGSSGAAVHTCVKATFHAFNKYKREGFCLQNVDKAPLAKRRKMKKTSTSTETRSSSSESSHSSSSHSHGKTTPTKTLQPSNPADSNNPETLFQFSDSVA

[5] = biological target: Tyrosine-protein kinase Lck (Homo sapiens, UniProt P06239); test: Selectivity interaction (Kinase panel (University of Dundee)) EUB0000169b LCK; settings: at 10 µM
Tyrosine-protein kinase Lck, sequence (P06239 2-509 limits assumed): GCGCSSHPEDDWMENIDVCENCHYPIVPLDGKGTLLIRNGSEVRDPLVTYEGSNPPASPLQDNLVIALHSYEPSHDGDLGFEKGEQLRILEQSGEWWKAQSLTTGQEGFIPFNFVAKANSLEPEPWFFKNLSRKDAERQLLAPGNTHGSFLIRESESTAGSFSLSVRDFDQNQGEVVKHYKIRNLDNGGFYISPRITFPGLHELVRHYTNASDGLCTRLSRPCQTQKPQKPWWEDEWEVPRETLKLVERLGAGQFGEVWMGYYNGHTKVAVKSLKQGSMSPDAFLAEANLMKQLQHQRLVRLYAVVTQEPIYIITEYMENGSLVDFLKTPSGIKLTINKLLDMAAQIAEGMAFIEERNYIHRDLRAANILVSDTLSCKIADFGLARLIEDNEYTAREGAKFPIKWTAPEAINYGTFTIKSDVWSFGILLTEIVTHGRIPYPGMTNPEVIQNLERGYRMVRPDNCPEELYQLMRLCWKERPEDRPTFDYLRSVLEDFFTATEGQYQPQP

[6] = biological target: Serine/threonine-protein kinase PLK2 (Homo sapiens) (UniProt Q9NYY3); test: Selectivity interaction (KinomeScan (DiscoverX)) EUB0000169b PLK2; settings: at 1 µM
Serine/threonine-protein kinase PLK2 (Homo sapiens), sequence (Q9NYY3 whole entry, looked up): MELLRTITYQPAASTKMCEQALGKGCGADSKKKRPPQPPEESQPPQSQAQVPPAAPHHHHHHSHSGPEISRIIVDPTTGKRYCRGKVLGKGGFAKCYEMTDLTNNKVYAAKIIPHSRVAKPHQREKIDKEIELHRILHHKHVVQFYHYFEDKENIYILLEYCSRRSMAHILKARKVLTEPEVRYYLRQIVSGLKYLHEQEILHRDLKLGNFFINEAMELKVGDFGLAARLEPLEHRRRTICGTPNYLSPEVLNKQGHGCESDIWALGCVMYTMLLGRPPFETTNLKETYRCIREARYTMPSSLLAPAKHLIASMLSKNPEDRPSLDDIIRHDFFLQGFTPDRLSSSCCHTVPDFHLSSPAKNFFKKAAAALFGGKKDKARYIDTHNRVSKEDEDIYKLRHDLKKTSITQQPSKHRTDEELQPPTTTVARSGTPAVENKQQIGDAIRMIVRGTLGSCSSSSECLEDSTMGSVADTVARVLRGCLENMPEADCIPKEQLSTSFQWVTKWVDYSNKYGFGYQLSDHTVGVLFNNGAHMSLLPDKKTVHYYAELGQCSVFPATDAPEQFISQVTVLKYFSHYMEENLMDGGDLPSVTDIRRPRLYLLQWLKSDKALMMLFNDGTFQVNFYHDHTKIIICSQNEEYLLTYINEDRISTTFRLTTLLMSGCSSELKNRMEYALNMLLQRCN

[7] = biological target: eIF-2-alpha kinase GCN2 (Homo sapiens) (UniProt Q9P2K8); test: Selectivity interaction (KinomeScan (DiscoverX)) EUB0000702a EIF2AK4; settings: at 1 µM
eIF-2-alpha kinase GCN2 (Homo sapiens), sequence (Q9P2K8 whole entry): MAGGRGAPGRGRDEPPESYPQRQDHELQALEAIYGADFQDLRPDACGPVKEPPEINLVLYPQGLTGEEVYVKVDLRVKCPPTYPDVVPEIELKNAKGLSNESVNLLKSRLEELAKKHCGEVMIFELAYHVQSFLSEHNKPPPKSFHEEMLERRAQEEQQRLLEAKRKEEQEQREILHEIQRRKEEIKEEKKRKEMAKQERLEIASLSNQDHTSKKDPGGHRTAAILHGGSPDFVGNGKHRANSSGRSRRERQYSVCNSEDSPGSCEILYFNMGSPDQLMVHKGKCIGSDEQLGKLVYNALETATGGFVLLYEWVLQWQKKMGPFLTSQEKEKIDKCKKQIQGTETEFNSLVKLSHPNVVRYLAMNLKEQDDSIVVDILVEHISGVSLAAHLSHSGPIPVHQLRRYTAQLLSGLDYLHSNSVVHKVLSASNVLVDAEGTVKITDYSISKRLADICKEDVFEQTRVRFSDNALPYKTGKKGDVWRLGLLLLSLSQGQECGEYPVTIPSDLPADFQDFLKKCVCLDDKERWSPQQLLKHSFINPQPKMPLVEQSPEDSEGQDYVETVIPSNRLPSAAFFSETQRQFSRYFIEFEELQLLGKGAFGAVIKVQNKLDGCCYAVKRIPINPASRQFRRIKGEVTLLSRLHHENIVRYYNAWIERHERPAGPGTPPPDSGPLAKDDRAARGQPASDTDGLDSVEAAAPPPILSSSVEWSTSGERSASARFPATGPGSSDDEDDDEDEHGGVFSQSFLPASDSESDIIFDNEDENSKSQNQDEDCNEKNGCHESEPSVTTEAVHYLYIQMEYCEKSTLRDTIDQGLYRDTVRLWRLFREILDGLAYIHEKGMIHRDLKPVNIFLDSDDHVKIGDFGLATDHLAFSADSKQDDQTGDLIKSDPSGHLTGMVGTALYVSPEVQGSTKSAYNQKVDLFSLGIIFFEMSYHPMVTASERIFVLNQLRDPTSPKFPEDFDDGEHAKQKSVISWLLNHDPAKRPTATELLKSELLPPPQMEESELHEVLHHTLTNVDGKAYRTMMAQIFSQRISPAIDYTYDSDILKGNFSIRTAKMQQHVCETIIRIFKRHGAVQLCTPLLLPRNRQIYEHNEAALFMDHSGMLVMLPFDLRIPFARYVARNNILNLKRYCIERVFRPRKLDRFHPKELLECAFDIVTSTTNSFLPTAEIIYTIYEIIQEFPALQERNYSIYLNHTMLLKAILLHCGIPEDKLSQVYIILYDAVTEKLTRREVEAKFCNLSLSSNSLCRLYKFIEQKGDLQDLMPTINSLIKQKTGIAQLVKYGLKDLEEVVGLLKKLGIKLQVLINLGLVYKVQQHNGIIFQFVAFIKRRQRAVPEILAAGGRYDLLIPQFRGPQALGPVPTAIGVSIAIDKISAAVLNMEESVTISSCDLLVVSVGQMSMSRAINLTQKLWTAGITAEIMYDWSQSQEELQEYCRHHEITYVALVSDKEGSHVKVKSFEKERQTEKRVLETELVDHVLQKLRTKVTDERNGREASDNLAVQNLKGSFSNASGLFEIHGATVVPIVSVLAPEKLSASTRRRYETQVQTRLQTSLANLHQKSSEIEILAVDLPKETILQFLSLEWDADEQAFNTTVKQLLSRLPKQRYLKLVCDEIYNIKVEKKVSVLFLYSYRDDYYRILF

[8] = biological target: Mitogen-activated protein kinase kinase kinase 19 (Homo sapiens, UniProt Q56UN5); test: Selectivity interaction (NanoBRET assay (HEK293T cells)) EUB0000305b MAP3K19
Mitogen-activated protein kinase kinase kinase 19, sequence (Q56UN5 whole entry): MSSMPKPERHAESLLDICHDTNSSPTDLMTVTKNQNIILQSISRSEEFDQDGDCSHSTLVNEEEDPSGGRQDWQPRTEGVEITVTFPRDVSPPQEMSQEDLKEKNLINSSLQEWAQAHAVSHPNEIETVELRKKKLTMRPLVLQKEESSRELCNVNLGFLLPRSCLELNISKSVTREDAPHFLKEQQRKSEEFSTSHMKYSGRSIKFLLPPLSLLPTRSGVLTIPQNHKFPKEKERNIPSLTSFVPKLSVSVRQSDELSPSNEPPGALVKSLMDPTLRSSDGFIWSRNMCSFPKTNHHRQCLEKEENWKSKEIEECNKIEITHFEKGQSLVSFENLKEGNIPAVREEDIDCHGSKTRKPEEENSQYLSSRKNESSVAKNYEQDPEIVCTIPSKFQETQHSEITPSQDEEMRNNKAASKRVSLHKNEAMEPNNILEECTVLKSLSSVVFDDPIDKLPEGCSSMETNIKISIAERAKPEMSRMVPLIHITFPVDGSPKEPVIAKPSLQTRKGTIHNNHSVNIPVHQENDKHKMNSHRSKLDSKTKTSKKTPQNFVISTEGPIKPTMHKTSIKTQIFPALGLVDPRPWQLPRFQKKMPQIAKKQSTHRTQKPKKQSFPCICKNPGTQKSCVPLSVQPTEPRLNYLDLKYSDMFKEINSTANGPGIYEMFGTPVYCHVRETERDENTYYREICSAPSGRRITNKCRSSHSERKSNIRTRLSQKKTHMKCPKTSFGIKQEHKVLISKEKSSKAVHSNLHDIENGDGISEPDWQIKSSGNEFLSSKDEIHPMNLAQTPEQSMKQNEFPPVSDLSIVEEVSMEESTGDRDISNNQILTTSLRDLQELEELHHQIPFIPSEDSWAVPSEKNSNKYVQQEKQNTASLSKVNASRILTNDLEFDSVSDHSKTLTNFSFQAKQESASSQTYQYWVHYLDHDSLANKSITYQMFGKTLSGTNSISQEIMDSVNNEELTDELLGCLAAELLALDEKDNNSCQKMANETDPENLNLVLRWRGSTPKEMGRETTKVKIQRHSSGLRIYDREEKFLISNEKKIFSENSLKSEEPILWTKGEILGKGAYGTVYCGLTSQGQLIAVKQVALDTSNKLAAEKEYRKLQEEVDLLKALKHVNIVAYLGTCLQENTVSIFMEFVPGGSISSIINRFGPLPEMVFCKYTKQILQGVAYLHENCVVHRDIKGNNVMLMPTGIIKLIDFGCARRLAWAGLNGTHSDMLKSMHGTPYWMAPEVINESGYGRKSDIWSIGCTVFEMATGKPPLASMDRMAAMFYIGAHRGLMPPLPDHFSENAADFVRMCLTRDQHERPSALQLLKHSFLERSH

% of control [1]: 4.1%
% of control [2]: 0.5%
% of control [3]: 1.8%
SMILES: COc1cc2ncn(-c3cc(OCc4ccccc4C(F)(F)F)c(C(N)=O)s3)c2cc1OC [GW843682X]

% of control [4]: 89%
% of control [5]: 55%
% of control [6]: 1.2%
SMILES: CC[C@@H]1C(=O)N(C)c2cnc(Nc3ccc(C(=O)NC4CCN(C)CC4)cc3OC)nc2N1C1CCCC1

% of control [7]: 6.7%
SMILES: CN(c1ccnc(CNc2nc(Nc3ccc4c(c3)CC(=O)N4)ncc2C(F)(F)F)n1)S(C)(=O)=O [PF-00911705]

IC50 [8]: > 20 µM
SMILES: C[C@H](c1ccnc(Nc2nc3ccc(-c4cc(N(C)C)ncn4)cc3[nH]2)c1)N1CCN(C(=O)CC(F)(F)F)CC1 [BAY-985]
